For eight compounds, MIC results are on record in DBAASP.

Values after ≈ are worked out from the molar mass of the structure shown.

For orientation: MIC means the least concentration at which growth counts as inhibited. The low end stands for a more susceptible organism, the high end for a less susceptible organism.

What all share (experiment): ≥ marks a high value that may be exact or a test limit, other limits are often not marked, values filed in µg/mL are converted to µM
The subject of experiment [1] is Candida albicans ATCC 90028.
Experiment [2] has as its system Klebsiella pneumoniae KK3 9904.
Experiment [3] concerns Staphylococcus epidermidis RP62A.
For experiment [4], the system named is Staphylococcus aureus NCTC 8325.
For experiment [5], the system named is Escherichia coli ATCC 25922.
Experiment [6] deals with Enterococcus faecalis ATCC 29212.
Experiment [7] deals with Pseudomonas aeruginosa ATCC 27853.
In experiment [8] the test system is Enterobacter cloacae HNTCC 53001.
Experiment [9] concerns Staphylococcus aureus T7/20.
Experiment [10] has as its system Bacillus licheniformis X39.
Experiment [11] deals with Staphylococcus aureus ATCC 2592.
Experiment [12] relates to Psychrobacter faecalis X29.
Experiment [13] concerns Rhodococcus rhodochrous X15.
The subject of experiment [14] is Staphylococcus carnosus KHS.
Experiment [15] relates to Candida albicans ATCC 2002.
Experiment [16] deals with Escherichia coli CIB 84492.
The subject of experiment [17] is Staphylococcus aureus ATCC 25923.
Experiment [18] concerns Pseudomonas aeruginosa CMCCB 10104.
Experiment [19] deals with Staphylococcus aureus CIB 85462.
For experiment [20], the system named is Pseudomonas aeruginosa ATCC 9027.
Experiment [21] has as its system Staphylococcus aureus.
The test system of experiment [22] is Shigella flexneri ATCC 203.
The subject of experiment [23] is Bacillus subtilis ATCC 6633.
Experiment [24] concerns Staphylococcus aureus ATCC 6538.
Experiment [25] relates to Escherichia coli ATCC 2592.
Experiment [26] deals with Micrococcus luteus ATCC 9341.
For experiment [27], the system named is Corynebacterium diphtheriae ATCC 8024.
The test system of experiment [28] is Candida albicans ATCC 36232.
The subject of experiment [29] is Staphylococcus epidermidis ATCC 12228.
Experiment [30] relates to Micrococcus luteus A270.
Experiment [31] has as its system Listeria innocua.
Experiment [32] concerns Salmonella enterica subsp. enterica serovar Enteritidis.
The subject of experiment [33] is Escherichia coli.
The subject of experiment [34] is Pseudomonas aeruginosa H1001.

With `CSCC[C@H](NC(=O)[C@@H](NC(=O)[C@@H](NC(=O)[C@H](CC(C)C)NC(=O)[C@@H]1CCCN1C(=O)[C@H](CC(C)C)NC(=O)[C@@H](N)Cc1ccccc1)C(C)C)[C@@H](C)O)C(=O)N[C@@H](CC(C)C)C(=O)N[C@@H](CC(C)C)C(=O)NCC(=O)N[C@@H](CCCCN)C(=O)N[C@@H](CC(C)C)C(=O)N[C@@H](Cc1ccccc1)C(N)=O` [FLPLVTMLLGKLF], the minimal inhibitory concentration (MIC) was not below 160 µM in experiment [1]; not below 80 µM in experiment [2]; 10 µM (≈ 14.9 µg/mL) in [3]; 5 µM (≈ 7.45 µg/mL) in [4]; more than 160 µM in experiment [5]; 40 µM (≈ 59.6 µg/mL) in experiment [6]. For the same compound, the MIC in [7] is 160 µM (≈ 239 µg/mL); in experiment [8] it was not below 40 µM; in [9], 10 µM (≈ 14.9 µg/mL).
For the compound `CC[C@H](C)[C@H](NC(=O)CN)C(=O)N[C@@H](Cc1ccccc1)C(=O)N[C@@H](CO)C(=O)N[C@@H](CC(C)C)C(=O)N[C@@H](Cc1ccccc1)C(=O)N[C@@H](CCCCN)C(=O)N[C@@H](C)C(=O)NCC(=O)N[C@@H](C)C(=O)N[C@@H](CCCCN)C(=O)N[C@@H](Cc1ccccc1)C(=O)N[C@@H](Cc1ccccc1)C(=O)NCC(=O)N[C@@H](CCCCN)C(=O)N[C@@H](Cc1cnc[nH]1)C(=O)N[C@@H](CC(C)C)C(=O)N[C@@H](CC(C)C)C(=O)N[C@@H](CCCCN)C(=O)N[C@@H](CCC(N)=O)C(=O)N[C@@H](C)C(=O)NCC(=O)N[C@@H](CCCCN)C(=O)N[C@@H](C)C(=O)NCC(=O)N[C@@H](C)C(=O)N[C@@H](CCC(=O)O)C(=O)N[C@@H](Cc1cnc[nH]1)C(=O)N[C@@H](CC(C)C)C(=O)N[C@@H](C)C(=O)N[C@H]1CSSC[C@@H](C(=O)O)NC(=O)[C@H](CCC(N)=O)NC(=O)[C@H](CC(N)=O)NC(=O)[C@H]([C@@H](C)O)NC(=O)[C@H](C)NC(=O)[C@H](CCCCN)NC1=O` [GIFSLFKAGAKFFGKHLLKQAGKAGAEHLACKATNQC], the MIC in [10] is 3.2 µM (≈ 12.4 µg/mL); in [11], 1.6 µM (≈ 6.22 µg/mL); in [12], 1.6 µM (≈ 6.22 µg/mL); in [13] it was 0.8 µM (≈ 3.11 µg/mL); in experiment [14], 3.2 µM (≈ 12.4 µg/mL).
Take `CC[C@H](C)[C@H](NC(=O)[C@H](CC(C)C)NC(=O)[C@H](CCCCN)NC(=O)[C@H](C)NC(=O)[C@H](C)NC(=O)CNC(=O)[C@H](CCCCN)NC(=O)[C@@H](NC(=O)[C@H](CC(C)C)NC(=O)[C@@H](NC(=O)[C@H](Cc1ccccc1)NC(=O)[C@H](CC(C)C)NC(=O)CN)[C@@H](C)O)[C@@H](C)CC)C(=O)NCC(=O)N[C@@H](CCCCN)C(=O)N[C@H](C(=O)N[C@H](C(=O)N[C@@H](C)C(=O)N[C@@H](CCCCN)C(=O)N[C@@H](CCC(=O)O)C(=O)N[C@@H](C)C(=O)NCC(=O)N[C@@H](CCCCN)C(=O)N[C@H](C(=O)NCC(=O)N[C@@H](CC(C)C)C(=O)N[C@@H](CCC(=O)O)C(=O)N[C@@H](CC(C)C)C(=O)N[C@@H](CCSC)C(=O)N[C@@H](C)C(=O)N[C@H]1CSSC[C@@H](C(=O)O)NC(=O)[C@H](CCC(N)=O)NC(=O)[C@H](CC(N)=O)NC(=O)[C@H]([C@@H](C)O)NC(=O)[C@H]([C@@H](C)CC)NC(=O)[C@H](CCCCN)NC1=O)[C@@H](C)O)C(C)C)[C@@H](C)O` [GLFTLIKGAAKLIGKTVAKEAGKTGLELMACKITNQC]: the MIC is not below 100 µM in experiment [1]; not below 50 µM in [4]; 1.33 µM (≈ 5.1 µg/mL) in experiment [15]; 2.67 µM (≈ 10.2 µg/mL) in [5]; not below 33.5 µM in [16]; 1.33 µM (≈ 5.1 µg/mL) in [17]. The MIC is 2.67 µM (≈ 10.2 µg/mL) in experiment [18] and 8.37 µM (≈ 32 µg/mL) in experiment [19].
Take `CC(C)C[C@H](NC(=O)[C@H](CS)NC(=O)[C@H](Cc1cnc[nH]1)NC(=O)[C@H](C)NC(=O)[C@H](C)NC(=O)[C@H](CS)NC(=O)[C@H](C)NC(=O)[C@H](C)NC(=O)[C@H](CC(=O)O)NC(=O)[C@@H](N)CC(N)=O)C(=O)N[C@@H](Cc1ccccc1)C(=O)N[C@@H](CCCN=C(N)N)C(=O)NCC(=O)N[C@@H](CCCN=C(N)N)C(=O)N[C@@H](CO)C(=O)NCC(=O)NCC(N)=O` [NDAACAAHCLFRGRSGG]: the MIC in experiment [20] is more than 58.6 µM; in [21], more than 58.6 µM; in experiment [22], not below 58.6 µM; in experiment [23] it was not below 58.6 µM; in experiment [24], more than 58.6 µM; in experiment [25] it was not below 58.6 µM. Also, the MIC in [26] is not below 58.6 µM; in [27], not below 58.6 µM; in [28], not below 58.6 µM; in [29], more than 58.6 µM.
Turning to `C[C@@H](O)[C@H](NC(=O)[C@H](CCCCN)NC(=O)[C@@H](NC(=O)[C@@H](NC(=O)[C@@H]1CCCN1)[C@@H](C)O)[C@@H](C)O)C(=O)N[C@@H](Cc1ccc(O)cc1)C(=O)N[C@@H](Cc1ccccc1)C(=O)N1CCC[C@H]1C(=O)N[C@@H](Cc1cnc[nH]1)C(=O)N[C@@H](Cc1ccccc1)C(=O)O` [PTTKTYFPHF], the MIC in experiment [30] worked out at 1 µM (≈ 1.24 µg/mL); in experiment [31], 1 µM (≈ 1.24 µg/mL); in experiment [32], 9 µM (≈ 11.1 µg/mL); in experiment [33], 9 µM (≈ 11.1 µg/mL).
Consider `NC(=O)[C@H](CCCN=C(N)N)NC(=O)[C@H](CCCN=C(N)N)NC(=O)[C@H](Cc1c[nH]c2ccccc12)NC(=O)[C@@H]1CCCN1C(=O)[C@H](Cc1c[nH]c2ccccc12)NC(=O)[C@H](Cc1c[nH]c2ccccc12)NC(=O)[C@@H]1CCCN1` [PWWPWRR], for which the MIC in experiment [26] is 3.1 µM (≈ 3.36 µg/mL); in experiment [34] it was not below 231 µM.
For `CC[C@H](C)[C@H](NC(=O)[C@H](CCCN=C(N)N)NC(=O)[C@H](Cc1ccc(O)cc1)NC(=O)[C@H](Cc1c[nH]c2ccccc12)NC(=O)[C@H](CCCN=C(N)N)NC(=O)[C@@H](NC(=O)[C@@H](N)CCCN=C(N)N)C(C)C)C(=O)N[C@@H](Cc1ccccc1)C(=O)N[C@@H](Cc1ccc(O)cc1)C(N)=O` [RVRWYRIFY], the MIC in experiment [34] was found to be 1.47 µM (≈ 2 µg/mL).
Regarding `CC(C)[C@H](NC(=O)[C@H](CS)NC(=O)[C@@H](NC(=O)[C@H](CCCN=C(N)N)NC(=O)[C@H](CCCCN)NC(=O)CNC(=O)[C@H](CC(N)=O)NC(=O)[C@H](CS)NC(=O)[C@@H](N)Cc1ccc(O)cc1)C(C)C)C(=O)N[C@@H](CS)C(N)=O` [YCNGKRVCVC], the MIC in experiment [20] is more than 87.4 µM; in experiment [21] it was more than 87.4 µM; in experiment [22] it was not below 87.4 µM; in experiment [23] it was not below 87.4 µM; in [24], more than 87.4 µM; in [25], not below 87.4 µM. Further, the MIC was not below 87.4 µM in [26], not below 87.4 µM in experiment [27], not below 87.4 µM in experiment [28] and more than 87.4 µM in experiment [29].
